Test results from patent publication US8716334B2, “Substituted cyclohexylidene-ethylidene-octahydro-indene compounds” (Ben Gurion University of the Negev Research and Development …, priority 2008, dated 2014).
Entries after “also recorded” stand apart in the source; their conditions may differ.

Key:
[1] = system: HT-29 human colon cancer cells; experiment: In vivo anti-tumor activity, HT-29 tumors in nude mice; settings: for tumor size relative to controls at 30 days after cancer cell injection / size of tumors versus vehicle-treated control mice: HT-29 sc in nude mice; for tumor size relative to controls at 30 days after cancer cell injection: 2 μg/kg ip; for size of tumors versus vehicle-treated control mice: 2 μg/kg ip from day 20; for weight loss or observable adverse effects: nude mice, 2 μg/kg ip three times per week
Description: In vivo anti-tumor activity of the novel derivatives of calcipotriol: Experiments were carried out to determine the ability of BGP-13 and BGP-15 to inhibit the growth of human tumor cells in vivo. […] Nude mice received a subcutaneous (sc) injection of HT-29 human colon cancer cells. At various time intervals after the administration of the tumor cells, the mice received three times per week intraperitoneal injections of BGP-13 and BGP-15 at a dose of 2 μg/kg. […] In one experiment 12 nude mice, which received a s.c. injection of HT-29, were divided into three groups. Starting from day 20 after tumor injection, 2 groups of the mice received ip injections of BGP-13 and BGP-15 respectively. […] At 30 days after cancer cell injection, the tumors in the treated group were half the size of the tumors in controls (FIG. 14).

LNCaP cells = experiment: MTT viability assay in LNCaP cells; format: cell-based, human; settings: 1 or 5 μmol/L, 3 to 6 days
Description: (§1) LNCaP and MCF-7 cells were plated in 96-well plates and treated with 1 or 5 μmol/L test substances for 3 to 6 days. Cell viability following treatments was assayed by MTT. All experiments were conducted at least twice, and weighted results from all experiments are shown. *p<0.005 of BGP-15 relative to vitamin D3, **p<0.001 of BGP-15 relative to vitamin D3 and to calcipotriene.
(§2) LNCaP and MCF-7 cell-lines are widely used models for human prostate and mammary carcinomas respectively. Following BGP-15 purification and structural elucidation (FIG. 12), the effect of calcipotriene and BGP-15 on the viability of both LNCaP and MCF-7 cells was tested in-vitro by using the MTT assay, and was compared with the effect obtained by vitamin D3 (calcitriol).

HT-29, MCF-7, and LNCaP = experiment: Activity against cell lines of human origin; format: cell-based
MCF-7 cells = experiment: MTT viability assay in MCF-7 cells; format: cell-based, human; settings: MCF-7, 1 or 5 μmol/L, 3 to 6 days
Description: as §1, §2

[2] = Calcium metabolic model in rats; format: in vivo; settings: 20 ng daily for six days
Description: The clinical use of vitamin D3 as an anti-cancer agent is limited by its toxicity and concerns the possible development of hypercalcemia or hypercalciuria in treated patients. The calcium levels in rat blood, and the total daily secretion of calcium in rat urine were evaluated following daily treatments of 20 ng of vitamin D3, calcipotriene or BGP-15 for six days as shown in FIG. 15.

[3] = system: MCF-7 human breast carcinoma cell line; experiment: Neutral-Red viability assay in MCF-7 cells; format: cell-based; settings: MCF-7, 30 μM, 24 hours
Description: (§3) Cell culture: The following human cell lines (1) LNCaP—human prostate carcinoma cell line (2) MCF-7—human breast carcinoma cell line, and (3) GA—human melanoma cell line (3) HaCaT—immortalizes normal human skin keratinocytes were tested. Cells were inoculated in RPMI 1640 (LNCaP and GA) or Dulbecco modified eagle medium-DMEM (MCF-7 and HaCaT) supplemented with 10% heat inactivated fetal calf serum, 200 μM L-glutamine, 10 units/ml Penicillin and 10 μgr/ml Streptomycin. The cells were kept at 37° C. in a 5% CO2 humidified atmosphere.
(§4) The direct effect of the compound compared to free calcipotriene and vitamin D3 in the viability and proliferation level of cultured cells was assessed in vitro using cultured Cells. The cells were inoculated in 0.2 ml fresh medium. After 24 at 37° C. in a 5% CO2 humidified atmosphere, the medium was replaced with a fresh medium containing 0.5% ethanol and 30, 5, 1 and 0.1 μM test substance. Medium containing 0.5% ethanol without test compounds was used for the control cells. Cell growth and proliferation was assayed by Neutral-Red assay (evaluated by measuring the absorbance of the dye following 3 hours incubation, in 540 nm) at the stated times.

p21^WAF1 = experiment: Western blot of p21 expression in LNCaP cells; format: cell-based, human; settings: 100 nM, 48 hours
Description: Cells were incubated for 5 minutes at room temperature in 100 μl of 1% SDS lysis buffer. Samples were then collected into eppendorfs, incubated for 10 minutes at 100° C., and centrifuged at 14,000 rpm for 10 minutes. Supernatants were transferred into new tubes and pellets were discarded. Determination of protein concentration was conducted using the Bradford assay. […] protein of each sample was loaded on PVDF membranes and incubated with anti p21 antibody (Santa Cruz Biotechnology, Santa Cruz, Calif., U.S.A).

[4] = system: HaCaT immortalizes normal human skin keratinocytes; experiment: Neutral-Red viability assay in HaCaT cells; format: cell-based
Description: as §3, §4

HaCaT keratinocytes = experiment: Cellular entry into HaCaT keratinocytes by HPLC; format: in vitro ADME, human; settings: for entry into keratinocytes: HaCaT cultures, HPLC of external and internal fractions; for cell internalization normalized per cell: 0.5×10^6 to 9.7×10^6 cells, data not shown
Description: (§5) External and internal fractions of HaCaT cultures (0.5×10^6, 1×10^6, 3×10^6, 5×10^6 and 9.7×10^6 cells) were analyzed by HPLC.

[5] = system: LNCaP human prostate carcinoma cell line; experiment: Neutral-Red viability assay in LNCaP cells; format: cell-based; settings: for antiproliferative effect (viability assay): 30 μM, 24 hours
Description: as §3, §4

HaCaT cells = experiment: MTT and NR viability assays for HaCaT cells (FIG. 7); format: cell-based, human; parameters: dose or concentration left out as unconfirmed; settings: (for 24 hours)
Description: FIG. 7 is a bar graph showing the results of a MTT and NR viability assays for HaCaT cells treated with 30 µM (for 24 hours) of 1α,25(OH)2 vitamin D3, calcipotriol (CPT), and BGP-13.
Viability of HaCaT cells in the presence of three vitamin D3 derivatives, 1α,25(OH)2 D3 (calcitriol), and BGP-013 was studied by MTT assay.

[6] = Stability in the external medium; format: in vitro ADME; settings: relative to CPT
Description: as §5

[7] = Reaction with singlet oxygen (endoperoxide-naphthalene trapper); settings: room temperature, product detected by TLC, LC-MS
Source text: The trapper, endoperoxide-naphthalene, was converted into naphthalene and released exclusively singlet oxygen at room temperature (FIG. 11). Combining calcipotriol with the endoperoxide has created a new product that was first detected by TLC as BGP-13. LC-MS has confirmed that this indeed is the substance.

[8] = CPT metabolite in rat skin
Source text: LC/MS analysis has confirmed that the metabolite peak appeared at BGP-13's retention time was indeed this derivative (FIG. 10). […] The formation of reduced levels of this metabolite is probably due to the poor penetration of calcipotriol into the skin. Therefore, intracellular BGP-13 is an […] product of the internalized CPT with reactive oxygen species (ROS) such as singlet oxygen. This metabolic pathway of calcipotriol may have a role in scavenging ROS and reducing inflammatory processes in cells and tissue.

Compound | tumor size relative to controls at 30 days after cancer cell injection [1] | size of tumors versus vehicle-treated control mice [1] | weight loss or observable adverse effects [1] | cell survival (MTT) (LNCaP cells) | activity against cell lines of human origin (HT-29, MCF-7, and LNCaP) | cell survival (MTT) (MCF-7 cells) | hypercalcemia (calcium levels in rat blood) [2] | hypercalciuria (total daily secretion of calcium in rat urine) [2] | p21 expression (p21^WAF1) | entry into keratinocytes (HaCaT keratinocytes) | cell internalization normalized per cell (HaCaT keratinocytes; HaCaT) | antiproliferative effect (viability assay) [5] | other results
C=C1/C(=C\C=C2/CCC[C@@]3(C)C2CC[C@@H]3C(C)/C=C/C(Cl)C2CC2)C[C@@H](O)C[C@@H]1O (some centres unmarked) [Calci-Cl] | half the size | significantly smaller | did not cause either weight loss or any observable adverse effects | reduce prostate and breast cancer cells survival | active at least against three cell lines | reduce prostate and breast cancer cells survival | do not generate hypercalcemia | do not generate hypercalcemia or hypercalciuria | – | – | – | – | –
C=C1/C(=C\C=C2/CCC[C@@]3(C)C2CC[C@@H]3C(C)C2C=C(C3CC3)OO2)C[C@@H](O)C[C@@H]1O (some centres unmarked) [Compound II, Calci-dioxole] | half the size | significantly smaller | did not cause either weight loss or any observable adverse effects | – | active at least against three cell lines | – | – | – | not mediated through increased p21 expression | approximately 60 % of the applied substance | constant even at a high cell density | much more potent antiproliferative effect on the LNCaP and MCF-7 cancer cells as compared to HaCaT cells; also recorded: significantly high efficacy; also recorded: much more potent antiproliferative effect on LNCaP and MCF-7 cancer cells than on HaCaT cells; also recorded: much more potent antiproliferative effect on LNCaP cells than calcipotriol alone | antiproliferative effect (viability assay) [3]: much more potent antiproliferative effect on the LNCaP and MCF-7 cancer cells as compared to HaCaT cells; also recorded: much more potent antiproliferative effect on LNCaP and MCF-7 cancer cells than on HaCaT cells; selectivity for carcinogenic versus non-carcinogenic cells ([4]; HaCaT compared with cancer cell lines): more selective for carcinogenic cells; also recorded: might have a less potent effect on non-carcinogenic cells than on carcinogenic cells; potency of treatment (viability assay) ([4]; HaCaT, 5 μM and 1 μM, 6 days): less potent than treatments with calcitriol and calcipotriol; intracellular permeation as fraction of the total quantity momentarily present in the cell culture (HaCaT keratinocytes; HaCaT): enhanced intracellular permeation increased its stability by preventing degradation in the medium; mortality (viability assay) ([5]; 5 μM, 6 days): higher mortality than cells exposed to calcipotriol alone; antiproliferative effect (viability assay) ([5]; listed as BGP-13): much more potent antiproliferative effect on LNCaP cells than calcipotriol alone; inhibition of proliferation of keratinocytes (MTT assay) (HaCaT cells): inhibited the proliferation of the keratinocytes at the same rate and extent as CPT or calcitriol; stability in the medium [6]: significantly less stable in the medium relative to CPT
C=C1/C(=C\C=C2/CCC[C@]3(C)[C@@H]([C@H](C)/C=C/[C@@H](O)C4CC4)CC[C@@H]23)C[C@@H](O)C[C@@H]1O [calcipotriol, reference compound] | – | – | – | reduce prostate and breast cancer cells survival | – | reduce prostate and breast cancer cells survival | do not generate hypercalcemia | do not generate hypercalcemia or hypercalciuria | increased p21 expression | comparable | constant even at a high cell density | less efficacious; also recorded: relatively lower anticancer effect | action towards singlet oxygen [7]: antioxidant/quencher of singlet oxygen; metabolite BGP-13 in rat skin [8]: found at low levels
C=C1/C(=C\C=C2/CCC[C@]3(C)[C@@H]([C@H](C)CCCC(C)(C)O)CC[C@@H]23)C[C@@H](O)C[C@@H]1O [calcitriol] | – | – | – | reduce prostate and breast cancer cells survival | – | reduce prostate and breast cancer cells survival | – | – | increased p21 expression | – | – | less efficacious; also recorded: relatively lower anticancer effect | –
